Data: PubChem BioAssay (NCI)
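Dose response: 5 concentrations. Exposure: 48 h. Format: 96-well plates. Endpoint: linear interpolation; highest concentration if not reached. At the GI50, growth is halved. The concentration for full growth arrest is given as TGI.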

How the values were obtained:
Assay in all cases: DTP human tumour cell line panel, 48 h
786-0 renal = tested on: 786-0 renal
A498 renal = tested on: A498 renal
A549 NSCLC = tested on: A549 NSCLC
ACHN renal = tested on: ACHN renal
BT-549 breast = tested on: BT-549 breast
CAKI-1 renal = tested on: CAKI-1 renal
CCRF-CEM leukemia = tested on: CCRF-CEM leukemia
COLO 205 colon = tested on: COLO 205 colon
DU-145 prostate = tested on: DU-145 prostate
EKVX NSCLC = tested on: EKVX NSCLC
HCC-2998 colon = tested on: HCC-2998 colon
HCT-116 colon = tested on: HCT-116 colon
HCT-15 colon = tested on: HCT-15 colon
HL-60(TB) leukemia = tested on: HL-60(TB) leukemia
HOP-62 NSCLC = tested on: HOP-62 NSCLC
HOP-92 NSCLC = tested on: HOP-92 NSCLC
HS 578T breast = tested on: HS 578T breast
HT29 colon = tested on: HT29 colon
IGROV1 ovarian = tested on: IGROV1 ovarian
K-562 leukemia = tested on: K-562 leukemia
KM12 colon = tested on: KM12 colon
LOX IMVI melanoma = tested on: LOX IMVI melanoma
M14 melanoma = tested on: M14 melanoma
MALME-3M melanoma = tested on: MALME-3M melanoma
MCF7 breast = tested on: MCF7 breast
MDA-MB-231 breast = tested on: MDA-MB-231 breast
MDA-MB-435 = tested on: MDA-MB-435
MOLT-4 leukemia = tested on: MOLT-4 leukemia
NCI-H226 lung = tested on: NCI-H226 lung
NCI-H23 lung = tested on: NCI-H23 lung
NCI-H460 lung = tested on: NCI-H460 lung
NCI-H522 lung = tested on: NCI-H522 lung
NCI/ADR-RES ovarian = tested on: NCI/ADR-RES ovarian
OVCAR-3 ovarian = tested on: OVCAR-3 ovarian
OVCAR-4 ovarian = tested on: OVCAR-4 ovarian
OVCAR-5 ovarian = tested on: OVCAR-5 ovarian
OVCAR-8 ovarian = tested on: OVCAR-8 ovarian
PC-3 prostate = tested on: PC-3 prostate
RPMI-8226 leukemia = tested on: RPMI-8226 leukemia
RXF 393 renal = tested on: RXF 393 renal
SF-268 CNS = tested on: SF-268 CNS
SF-295 CNS = tested on: SF-295 CNS
SF-539 CNS = tested on: SF-539 CNS
SK-MEL-2 melanoma = tested on: SK-MEL-2 melanoma
SK-MEL-28 melanoma = tested on: SK-MEL-28 melanoma
SK-MEL-5 melanoma = tested on: SK-MEL-5 melanoma
SK-OV-3 ovarian = tested on: SK-OV-3 ovarian
SN12C renal = tested on: SN12C renal
SNB-19 CNS = tested on: SNB-19 CNS
SNB-75 CNS = tested on: SNB-75 CNS
SR leukemia = tested on: SR leukemia
SW-620 colon = tested on: SW-620 colon
T-47D breast = tested on: T-47D breast
TK-10 renal = tested on: TK-10 renal
U251 CNS = tested on: U251 CNS
UACC-62 melanoma = tested on: UACC-62 melanoma
UO-31 renal = tested on: UO-31 renal

CC(C)[C@@H]1CC[C@]2(CO2)[C@@H]2C(=O)OCC(C(=O)O)=C[C@H]21
GI50 (786-0 renal): 358 nM
TGI (786-0 renal): > 100000 nM
GI50 (A498 renal): 203 nM
TGI (A498 renal): 738 nM
GI50 (A549 NSCLC): 1570 nM
TGI (A549 NSCLC): > 100000 nM
GI50 (ACHN renal): 430 nM
TGI (ACHN renal): > 100000 nM
GI50 (BT-549 breast): 286 nM
TGI (BT-549 breast): 851 nM
GI50 (CAKI-1 renal): 411 nM
TGI (CAKI-1 renal): > 100000 nM
GI50 (CCRF-CEM leukemia): 319 nM
TGI (CCRF-CEM leukemia): 2850 nM
GI50 (COLO 205 colon): 657 nM
TGI (COLO 205 colon): > 57700 nM
GI50 (DU-145 prostate): 471 nM
TGI (DU-145 prostate): > 100000 nM
GI50 (EKVX NSCLC): 5170 nM
TGI (EKVX NSCLC): > 100000 nM
GI50 (HCC-2998 colon): 459 nM
TGI (HCC-2998 colon): > 52300 nM
GI50 (HCT-116 colon): 325 nM
TGI (HCT-116 colon): > 100000 nM
GI50 (HCT-15 colon): 378 nM
TGI (HCT-15 colon): > 100000 nM
GI50 (HL-60(TB) leukemia): 328 nM
TGI (HL-60(TB) leukemia): 1700 nM
GI50 (HOP-62 NSCLC): 350 nM
TGI (HOP-62 NSCLC): 6940 nM
GI50 (HOP-92 NSCLC): 235 nM
TGI (HOP-92 NSCLC): 790 nM
GI50 (HS 578T breast): 288 nM
TGI (HS 578T breast): 2300 nM
GI50 (HT29 colon): 352 nM
TGI (HT29 colon): > 33900 nM
GI50 (IGROV1 ovarian): 442 nM
TGI (IGROV1 ovarian): 8730 nM
GI50 (K-562 leukemia): 334 nM
TGI (K-562 leukemia): > 100000 nM
GI50 (KM12 colon): 344 nM
TGI (KM12 colon): 4080 nM
GI50 (LOX IMVI melanoma): 331 nM
TGI (LOX IMVI melanoma): 1420 nM
GI50 (M14 melanoma): 273 nM
TGI (M14 melanoma): 898 nM
GI50 (MALME-3M melanoma): 305 nM
TGI (MALME-3M melanoma): 5310 nM
GI50 (MCF7 breast): 824 nM
TGI (MCF7 breast): > 100000 nM
GI50 (MDA-MB-231 breast): 363 nM
TGI (MDA-MB-231 breast): > 75600 nM
GI50 (MDA-MB-435): 355 nM
TGI (MDA-MB-435): 6720 nM
GI50 (MOLT-4 leukemia): 620 nM
TGI (MOLT-4 leukemia): 3960 nM
GI50 (NCI-H226 lung): 667 nM
TGI (NCI-H226 lung): > 100000 nM
GI50 (NCI-H23 lung): 1350 nM
TGI (NCI-H23 lung): 8410 nM
GI50 (NCI-H460 lung): 402 nM
TGI (NCI-H460 lung): > 100000 nM
GI50 (NCI-H522 lung): 46.2 nM
TGI (NCI-H522 lung): 155 nM
GI50 (NCI/ADR-RES ovarian): 431 nM
TGI (NCI/ADR-RES ovarian): > 100000 nM
GI50 (OVCAR-3 ovarian): 470 nM
TGI (OVCAR-3 ovarian): > 100000 nM
GI50 (OVCAR-4 ovarian): 440 nM
TGI (OVCAR-4 ovarian): > 100000 nM
GI50 (OVCAR-5 ovarian): 540 nM
TGI (OVCAR-5 ovarian): > 100000 nM
GI50 (OVCAR-8 ovarian): 351 nM
TGI (OVCAR-8 ovarian): > 100000 nM
GI50 (PC-3 prostate): 677 nM
TGI (PC-3 prostate): > 100000 nM
GI50 (RPMI-8226 leukemia): 240 nM
TGI (RPMI-8226 leukemia): 635 nM
GI50 (RXF 393 renal): 300 nM
TGI (RXF 393 renal): 1370 nM
GI50 (SF-268 CNS): 340 nM
TGI (SF-268 CNS): > 52500 nM
GI50 (SF-295 CNS): 1000 nM
TGI (SF-295 CNS): > 100000 nM
GI50 (SF-539 CNS): 353 nM
TGI (SF-539 CNS): > 34600 nM
GI50 (SK-MEL-2 melanoma): 208 nM
TGI (SK-MEL-2 melanoma): 407 nM
GI50 (SK-MEL-28 melanoma): 207 nM
TGI (SK-MEL-28 melanoma): 424 nM
GI50 (SK-MEL-5 melanoma): 348 nM
TGI (SK-MEL-5 melanoma): 1510 nM
GI50 (SK-OV-3 ovarian): 438 nM
TGI (SK-OV-3 ovarian): > 100000 nM
GI50 (SN12C renal): 320 nM
TGI (SN12C renal): > 20100 nM
GI50 (SNB-19 CNS): 379 nM
TGI (SNB-19 CNS): > 27100 nM
GI50 (SNB-75 CNS): 422 nM
TGI (SNB-75 CNS): > 100000 nM
GI50 (SR leukemia): 552 nM
TGI (SR leukemia): 4240 nM
GI50 (SW-620 colon): 334 nM
TGI (SW-620 colon): > 100000 nM
GI50 (T-47D breast): 381 nM
TGI (T-47D breast): > 100000 nM
GI50 (TK-10 renal): 686 nM
TGI (TK-10 renal): > 93500 nM
GI50 (U251 CNS): 343 nM
TGI (U251 CNS): > 100000 nM
GI50 (UACC-62 melanoma): 221 nM
TGI (UACC-62 melanoma): 578 nM
GI50 (UO-31 renal): 408 nM
TGI (UO-31 renal): 15900 nM
